Like-named read-outs stand apart in the source and are kept apart here.
Columns and labels:
[1] = biological target: T1, human kappa opioid receptor (Homo sapiens, UniProt P41145); assay: biochemical; type: binding
T1 construct: expressed in transfected cells; host or cells: Chinese hamster ovary cells (CHO-hKOR), membranes

[2] = biological target: T1, human kappa opioid receptor; assay: biochemical; conditions: for Emax: 1 h, read-out: Efficacy
rats [3] = assay: Locomotor activity test; type: in vivo, rat; conditions: FIG. 3B
rats [4] = assay: Forced swim test (FST); type: in vivo, rat; conditions: FIG. 3A
rats [5] = assay: Intracranial self-stimulation (ICSS), lateral hypothalamic brain stimulation; type: in vivo, rat; conditions: 1.0 mg/kg, IP, 1-hour test sessions, FIG. 4

T1 sequence (P41145 whole entry): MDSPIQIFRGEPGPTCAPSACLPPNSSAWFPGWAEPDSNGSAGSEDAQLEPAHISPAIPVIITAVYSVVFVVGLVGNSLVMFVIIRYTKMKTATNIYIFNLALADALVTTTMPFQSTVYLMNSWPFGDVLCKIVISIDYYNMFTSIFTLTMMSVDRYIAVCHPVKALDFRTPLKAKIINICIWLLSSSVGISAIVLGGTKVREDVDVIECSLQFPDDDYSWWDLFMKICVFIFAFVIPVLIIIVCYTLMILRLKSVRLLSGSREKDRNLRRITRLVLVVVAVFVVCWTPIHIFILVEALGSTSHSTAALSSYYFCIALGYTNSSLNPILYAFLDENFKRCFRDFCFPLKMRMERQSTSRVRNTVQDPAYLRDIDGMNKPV

`CCC(=O)O[C@H]1C[C@@H](C(=O)OC)[C@]2(C)CC[C@H]3C(=O)O[C@H](c4ccoc4)C[C@]3(C)C2C1=O` (stereo partly shown) [Compound 2, 2-propionyl-salvinorin B] was tested, and the Ki [1] was 7.2 ± 0.5 nM, the EC50 [2] was 20.4 ± 3.4 nM and the Emax [2] was 94%.

`CCCC(=O)O[C@H]1C[C@@H](C(=O)OC)[C@]2(C)CC[C@H]3C(=O)O[C@H](c4ccoc4)C[C@]3(C)C2C1=O` (stereo partly shown) [Compound 3, 2-butyryl-salvinorin B] showed a Ki [1] of 4.9 ± 0.6 nM, an EC50 [2] of 9.9 ± 0.6 nM and an Emax [2] of 97%.

`COC(=O)[C@@H]1C[C@H](OC)C(=O)C2[C@@]1(C)CC[C@H]1C(=O)O[C@H](c3ccoc3)C[C@]21C` (stereo partly shown) [Compound 4, 2-methoxy-salvinorin B] was tested, and the Ki [1] was 220 ± 12 nM, the EC50 [2] was 389 ± 76 nM and the Emax [2] was 98%.

Molecule `COC(=O)[C@@H]1C[C@H](OC(N)=O)C(=O)C2[C@@]1(C)CC[C@H]1C(=O)O[C@H](c3ccoc3)C[C@]21C` (stereo partly shown) [Compound 9, 2-(O-formamide)-salvinorin B] has a Ki [1] of 3.2 ± 0.2 nM, an EC50 [2] of 6.2 ± 1.4 nM and an Emax [2] of 99%.

Molecule `CNC(=O)O[C@H]1C[C@@H](C(=O)OC)[C@]2(C)CC[C@H]3C(=O)O[C@H](c4ccoc4)C[C@]3(C)C2C1=O` (stereo partly shown) [Compound 10, 2-(O—(N-methyl)formamide)-salvinorin B] has a Ki [1] of 83 ± 9 nM, an EC50 [2] of 201 ± 10 nM and an Emax [2] of 81%.

With `CCCCO[C@H]1C[C@@H](C(=O)OC)[C@]2(C)CC[C@H]3C(=O)O[C@H](c4ccoc4)C[C@]3(C)C2C1=O` (stereo partly shown) [Compound 13, 2-n-butoxy-salvinorin B] the Ki [1] was 35.8 ± 5.1 nM and the EC50 [2] was 104 ± 17 nM.

Work on `C=CCO[C@H]1C[C@@H](C(=O)OC)[C@]2(C)CC[C@H]3C(=O)O[C@H](c4ccoc4)C[C@]3(C)C2C1=O` (stereo partly shown) [Compound 14, 2-allyloxy-salvinorin B] yielded a Ki [1] of 60.1 ± 5.1 nM, an EC50 [2] of 145 ± 33 nM and an Emax [2] of 106%.

`CCCO[C@H]1C[C@@H](C(=O)OC)[C@]2(C)CC[C@H]3C(=O)O[C@H](c4ccoc4)C[C@]3(C)C2C1=O` (stereo partly shown) [Compound 16, 2-propoxy-salvinorin B] gave a Ki [1] of 28.7 ± 3 nM, an EC50 [2] of 67.4 ± 9.9 nM and an Emax [2] of 100%.

With `COC(=O)[C@@H]1C[C@H](OCc2ccccc2)C(=O)C2[C@@]1(C)CC[C@H]1C(=O)O[C@H](c3ccoc3)C[C@]21C` (stereo partly shown) [Compound 17, 2-benzyloxy-salvinorin B] the Ki [1] was 75.7 ± 5.9 nM and the EC50 [2] was 161 ± 14 nM.

With `CCN[C@@H]1C[C@@H](C(=O)OC)[C@]2(C)CC[C@H]3C(=O)O[C@H](c4ccoc4)C[C@]3(C)C2C1=O` (stereo partly shown) [Compound 18, 2-(N-ethylamino)-salvinorin] the Ki [1] was 28.9 ± 1 nM and the EC50 [2] was 68.9 ± 5.3 nM.

In the case of `CCNC(=O)O[C@H]1C[C@@H](C(=O)OC)[C@]2(C)CC[C@H]3C(=O)O[C@H](c4ccoc4)C[C@]3(C)C2C1=O` (stereo partly shown) [Compound 20, 2-(O—(N-ethyl)formamide)-salvinorin B], the Ki [1] is reported as 462 ± 20 nM and the EC50 [2] is reported as greater than 1000 nM.

With `COC(=O)[C@@H]1C[C@H](OC(=O)CNC(=O)OCC2c3ccccc3-c3ccccc32)C(=O)C2[C@@]1(C)CC[C@H]1C(=O)O[C@H](c3ccoc3)C[C@]21C` (stereo partly shown) [Compound 21] the Ki [1] was greater than 277 nM and the EC50 [2] was greater than 4120 nM.

For `COC(=O)O[C@H]1C[C@@H](C(=O)OC)[C@]2(C)CC[C@H]3C(=O)O[C@H](c4ccoc4)C[C@]3(C)C2C1=O` (stereo partly shown) [Compound 29], the Ki [1] was greater than 91 nM and the EC50 [2] was greater than 1720 nM.

`CCOC(=O)O[C@H]1C[C@@H](C(=O)OC)[C@]2(C)CC[C@H]3C(=O)O[C@H](c4ccoc4)C[C@]3(C)C2C1=O` (stereo partly shown) [Compound 30] showed a Ki [1] greater than 78.9 nM and an EC50 [2] greater than 1120 nM.

`CC(=O)O[C@H]1C[C@@H](C(=O)O)[C@]2(C)CC[C@@H]3C(=O)O[C@H](c4ccoc4)C[C@]3(C)C2C1=O` (stereo partly drawn) [Compound 31, epi-demethyl Salvinorin] gave a Ki [1] of 17.3 nM, an EC50 [2] of 84 nM and an Emax [2] of 93 ± 5%.

Molecule `CC(=O)O[C@H]1C[C@@H](C(=O)O)[C@]2(C)CC[C@H]3C(=O)O[C@H](c4ccoc4)C[C@]3(C)C2C1=O` (stereo partly shown) [Compound 32, demethyl Salvinorin] has a Ki [1] greater than 115 nM and an EC50 [2] greater than 1230 nM.

Molecule `CCOC(=O)C1CC(OC(C)=O)C(=O)C2C1(C)CCC1C(=O)OC(c3ccoc3)CC12C` (stereo not shown) [Compound 34] has a Ki [1] of 365 ± 26 nM, an EC50 [2] of 94.4 ± 4.1 nM and an Emax [2] of 110 ± 6.4%.

`C#CCCCCOC(=O)C1CC(OC(C)=O)C(=O)C2C1(C)CCC1C(=O)OC(c3ccoc3)CC12C` (stereo not shown) [Compound 51] showed a Ki [1] of 679 ± 112 nM, an EC50 [2] of 224 ± 4 nM and an Emax [2] of 104 ± 16.5%.

`COC(=O)[C@@H]1C[C@H](OC(C)=O)C(=O)C2[C@@]1(C)CC[C@H]1C(=O)OC(C3CCOC3)C[C@]21C` (stereo partly shown) [Compound 62] showed a Ki [1] of 19.3 nM, an EC50 [2] of 68.3 nM and an Emax [2] of 117 ± 4.7%.

In the case of `COC(=O)C1=CC(=O)C=C2[C@@]1(C)CC[C@H]1C(=O)O[C@H](c3ccoc3)C[C@]21C` [Compound 70], the Ki [1] is reported as greater than 616 nM and the EC50 [2] is reported as greater than 5150 nM.

Molecule `COC(=O)[C@@H]1C[C@@H](NC(C)C)C(=O)C2[C@@]1(C)CC[C@H]1C(=O)O[C@H](c3ccoc3)C[C@]21C` (stereo partly drawn) [Compound 75, 2-epi-(N-isopropyl)-salvinorin] has a Ki [1] of 2.3 ± 0.6 nM and an EC50 [2] of 7.2 ± 0.3 nM.

`COC(=O)[C@@H]1C[C@H](NC(=O)NC(=O)C(Cl)(Cl)Cl)C(=O)C2[C@@]1(C)CC[C@H]1C(=O)O[C@H](c3ccoc3)C[C@]21C` (stereo partly shown) [Compound 79] showed a Ki [1] of 227 ± 32 nM, an EC50 [2] of 471 ± 110 nM and an Emax [2] of 103%.

Work on `CCC(=O)N(C)[C@@H]1C[C@@H](C(=O)OC)[C@]2(C)CC[C@H]3C(=O)O[C@H](c4ccoc4)C[C@]3(C)C2C1=O` (stereo partly drawn) [Compound 81, 2-epi-(N-methylpropionamide)-salvinorin] yielded a Ki [1] of 6.9 ± 1.1 nM and an EC50 [2] of 12.6 ± 0.9 nM.

Molecule `COC(=O)[C@@H]1C[C@H](OC(=O)Nc2ccccc2)C(=O)C2[C@@]1(C)CC[C@H]1C(=O)O[C@H](c3ccoc3)C[C@]21C` (stereo partly shown) [Compound 86] has a Ki [1] of 282 ± 13 nM, an EC50 [2] of 197 ± 39 nM and an Emax [2] of 93%.

For `COC(=O)[C@@H]1C[C@H](OC(=O)[C@H](C)NC(C)=O)C(=O)C2[C@@]1(C)CC[C@H]1C(=O)O[C@H](c3ccoc3)C[C@]21C` (stereo partly shown) [Compound 91], the Ki [1] was 176 ± 5.5 nM, the EC50 [2] was 219 ± 25 nM and the Emax [2] was 93%.

For `COC(=O)[C@@H]1C[C@H](OC(=O)[C@H](C)N(C)C)C(=O)C2[C@@]1(C)CC[C@H]1C(=O)O[C@H](c3ccoc3)C[C@]21C` (stereo partly shown) [Compound 92], the Ki [1] was 197 ± 19 nM, the EC50 [2] was 539 ± 11 nM and the Emax [2] was 90%.

Molecule `CC(=O)OC1CC(C(=O)NC(C)C(=O)OCc2ccccc2)C2(C)CCC3C(=O)OC(c4ccoc4)CC3(C)C2C1=O` (stereo not shown) [Compound 98] has a Ki [1] of 14.2 ± 0.8 nM, an EC50 [2] of 46.7 ± 7.3 nM and an Emax [2] of 95%.

For `CC(=O)OC1CC(C(=O)NCC(=O)OCc2ccccc2)C2(C)CCC3C(=O)OC(c4ccoc4)CC3(C)C2C1=O` (stereo not shown) [Compound 100], the Ki [1] was 470 ± 92 nM, the EC50 [2] was 227 ± 15 nM and the Emax [2] was 105%.

With `CC(=O)OC1CC(C(=O)N2CCCC2C(=O)OCc2ccccc2)C2(C)CCC3C(=O)OC(c4ccoc4)CC3(C)C2C1=O` (stereo not shown) [Compound 103] the Ki [1] was 210 ± 32 nM, the EC50 [2] was 348 ± 26 nM and the Emax [2] was 100%.

`COC(=O)[C@@H]1C[C@@H](N)C(=O)C2[C@@]1(C)CC[C@H]1C(=O)O[C@H](c3ccoc3)C[C@]21C` (stereo partly drawn) [Compound 207b, 2-epi-aminosalvinorin] was tested, and the Ki [1] was 223 ± 123 nM, the EC50 [2] was 1370 ± 155 nM and the Emax [2] was 84%.

For `CNC1CC(C(=O)OC)C2(C)CCC3C(=O)OC(c4ccoc4)CC3(C)C2C1=O` (stereo not shown) [Compound 208a, 2-(N-methyl)-salvinorin], the Ki [1] was 328 ± 40 nM, the EC50 [2] was 825 ± 93 nM and the Emax [2] was 82%.

With `CCNC1CC(C(=O)OC)C2(C)CCC3C(=O)OC(c4ccoc4)CC3(C)C2C1=O` (stereo not shown) [Compound 209a, 2-(N-ethyl)-salvinorin] the Ki [1] was 65 ± 24 nM and the EC50 [2] was 72.8 ± 4 nM.

`COC(=O)C1CC(NC(C)C)C(=O)C2C1(C)CCC1C(=O)OC(c3ccoc3)CC12C` (stereo not shown) [Compound 210a, 2-(N-isopropyl)-salvinorin] was tested, and the Ki [1] was 17.6 ± 3.1 nM, the EC50 [2] was 18.9 ± 0.6 nM and the Emax [2] was 99%.

Work on `COC(=O)C1CC(N(C)C)C(=O)C2C1(C)CCC1C(=O)OC(c3ccoc3)CC12C` (stereo not shown) [Compound 211a, 2-(N,N-dimethyl)-salvinorin] yielded a Ki [1] of 168 ± 10 nM, an EC50 [2] of 240 ± 23 nM and an Emax [2] of 110%.

With `COC(=O)C1CC(NC(C)=O)C(=O)C2C1(C)CCC1C(=O)OC(c3ccoc3)CC12C` (stereo not shown) [Compound 212a, 2-(acetamide)-salvinorin] the Ki [1] was 149 ± 1 nM and the EC50 [2] was 188 ± 2 nM.

Molecule `COC(=O)C1CC(NC(C)=O)C(=O)C2C1(C)CCC1C(=O)OC(c3ccoc3)CC12C` (stereo not drawn) [Compound 212b, 2-epi-(acetamide)-salvinorin] has a Ki ([1]; read-out: Ki) of 332 ± 41 nM and an EC50 ([2]; read-out: EC50) of 339 ± 33 nM.

`COC(=O)C1CC(N(C)C(C)=O)C(=O)C2C1(C)CCC1C(=O)OC(c3ccoc3)CC12C` (stereo not shown) [Compound 214a, 2-(N-methylacetamide)-salvinorin] gave a Ki [1] of 3.2 ± 0.1 nM, an EC50 [2] of 2.4 ± 0.7 nM and an Emax [2] of 103%.

In the case of `COC(=O)[C@@H]1C[C@H](OC(C)=O)C(=O)C2[C@@]1(C)CC[C@H]1C(=O)O[C@H](c3ccoc3)C[C@]21C` (stereo partly shown) [salvinorin A], the “effect on locomotor activity” value (rats [3]) is reported as “without affecting locomotor activity”, the “effect in the forced swim test” value (rats [4]) is reported as “depressive-like effects” and the ICSS thresholds (rats [5]) is reported as “significantly elevated ICSS thresholds”.
